Legend:
in vitro [1] = conditions: Wistar Han, rat, lung S9 fraction
in vivo [2] = conditions: Wistar Han, rat, lung
in vivo [3] = conditions: Wistar Han, rat, at 0.6 to 2 µmol/kg
in vivo [4] = conditions: Wistar Han, rat, iv
in vivo [5] = conditions: Wistar Han, rat, iv; remark: listed apart in the source
in vitro [6] = conditions: rat, plasma
in vivo [7] = conditions: Wistar Han, rat, urine, iv; at 0.6 to 2 µmol/kg
in vivo [8] = conditions: Wistar Han, rat, iv; remark: listed apart in the source
in vitro [9] = conditions: rat, plasma; remark: listed apart in the source
in vitro [10] = conditions: human, lung S9 fraction

## CC(=O)N[C@H]1CSCCC(=O)N2CN3CN(C2)C(=O)CCSC[C@H](NC(=O)[C@H](CC(=O)O)NC(=O)[C@H](CCC(N)=O)NC(=O)[C@H](CC(C)(C)C)NC(=O)[C@H](Cc2cn(C)c4ccccc24)NC(=O)[C@H](CCC(N)=O)NC1=O)C(=O)N[C@@H](Cc1cn(C)c2ccccc12)C(=O)N[C@@H](CCCNC(=N)N(C)C)C(=O)NCC(=O)N[C@@H](Cc1ccc(F)c(Cl)c1)C(=O)N[C@H](C(N)=O)CSCCC3=O
In vitro [1]
  half-life at 1 h, 10 µM: 1.53 h
In vivo [2]
  MRT: 1.8 h
In vivo [3]
  bioavailability: 22.5%
In vivo [4]
  half-life: 0.583 h
In vivo [5]
  Vd: 0.32 L/kg
In vitro [6]
  remaining at 18 h: > 50%
In vivo [7]
  dose excreted: 0.8%
In vivo [8]
  clearance: 6.4 mL/min/kg

## CC(=O)N[C@H]1CSCCC(=O)N2CN3CN(C2)C(=O)CCSC[C@H](NC(=O)[C@H](CC(=O)O)NC(=O)[C@H](CCC(=O)O)NC(=O)[C@H](CC(C)C)NC(=O)[C@H](Cc2c[nH]c4ccccc24)NC(=O)[C@H](CCC(N)=O)NC1=O)C(=O)N[C@@H](Cc1c[nH]c2ccccc12)C(=O)N[C@@H](CCCNC(=N)N)C(=O)NCC(=O)N[C@@H](Cc1ccc(F)cc1)C(=O)N[C@H](C(=O)N[C@@H](C)C(N)=O)CSCCC3=O
In vitro [1]
  half-life at 1 h, 10 µM: 2.4 h
In vivo [2]
  MRT: 1.2 h
In vivo [3]
  bioavailability: 3.4%
In vivo [4]
  half-life: 0.0833 h
In vivo [5]
  Vd: 0.3 L/kg
In vitro [6]
  remaining at 18 h: > 50%
In vivo [8]
  clearance: 42 mL/min/kg

## CC(=O)N[C@H]1CSCCC(=O)N2CN3CN(C2)C(=O)CCSC[C@@H]2NC(=O)[C@H](CC(=O)O)NC(=O)[C@H](CCC(=O)O)NC(=O)[C@H](CC(C)C)NC(=O)[C@H](CCCCCC[C@H](NC(=O)[C@H](Cc4c[nH]c5ccccc45)NC2=O)C(=O)NCC(=O)N[C@@H](Cc2ccc(F)cc2)C(=O)N[C@H](C(N)=O)CSCCC3=O)NC(=O)[C@H](CCC(N)=O)NC1=O
In vitro [1]
  half-life at 1 h, 10 µM: 0.567 h
In vitro [6]
  remaining at 18 h: > 50%

## CC(=O)N[C@H]1CSCCC(=O)N2CN3CN(C2)C(=O)CCSC[C@H](NC(=O)[C@@H](CC(=O)O)NC(=O)[C@H](CCC(=O)O)NC(=O)[C@H](CC(C)C)NC(=O)[C@H](Cc2c[nH]c4ccccc24)NC(=O)[C@@H](CCC(N)=O)NC1=O)C(=O)N[C@@H](Cc1c[nH]c2ccccc12)C(=O)N[C@@H](CCCNC(=N)N)C(=O)NCC(=O)N[C@@H](Cc1ccc(F)cc1)C(=O)N[C@H](C(=O)O)CSCCC3=O
In vitro [1]
  half-life at 1 h, 10 µM: 1.12 h
In vivo [2]
  MRT: 1 h
In vivo [3]
  bioavailability: 2.3%
In vivo [4]
  half-life: 0.0333 h
In vivo [5]
  Vd: 0.13 L/kg
In vitro [6]
  remaining at 18 h: > 50%
In vivo [8]
  clearance: 45 mL/min/kg

## CC(=O)N[C@H]1CSCCC(=O)N2CN3CN(C2)C(=O)CCSC[C@H](NC(=O)[C@H](CC(N)=O)NC(=O)[C@H](CCC(=O)O)NC(=O)[C@H](CC(C)C)NC(=O)[C@H](Cc2c[nH]c4ccccc24)NC(=O)[C@H](Cc2c[nH]cn2)NC1=O)C(=O)N[C@@H](Cc1c[nH]c2ccccc12)C(=O)N[C@@H](CCCNC(=N)N)C(=O)NCC(=O)N[C@@H](Cc1ccccc1)C(=O)N[C@H](C(N)=O)CSCCC3=O
In vivo [2]
  MRT: > 24 h
In vivo [3]
  bioavailability: 33.9%
In vivo [4]
  half-life: 1.1 h
In vivo [5]
  Vd: 0.6 L/kg
In vitro [6]
  remaining at 18 h: > 50%
In vivo [7]
  dose excreted: 64%
In vivo [8]
  clearance: 6.3 mL/min/kg

## CC(=O)N[C@H]1CSCCC(=O)N2CN3CN(C2)C(=O)CCSC[C@@H]2NC(=O)[C@H](CC(=O)O)NC(=O)[C@H](CCC(=O)O)NC(=O)[C@H](CC(C)C)NC(=O)[C@H](CC/C=C/CC[C@H](NC(=O)[C@H](Cc4c[nH]c5ccccc45)NC2=O)C(=O)NCC(=O)N[C@@H](Cc2ccc(F)cc2)C(=O)N[C@H](C(N)=O)CSCCC3=O)NC(=O)[C@H](CCC(N)=O)NC1=O
In vitro [1]
  half-life at 1 h, 10 µM: 0.8 h
In vivo [2]
  MRT: 0.5 h
In vivo [3]
  bioavailability: 5.9%
In vivo [4]
  half-life: 0.05 h
In vivo [5]
  Vd: 0.21 L/kg
In vitro [6]
  remaining at 18 h: > 50%
In vivo [7]
  dose excreted: 0.1%
In vivo [8]
  clearance: 46 mL/min/kg

## CC(=O)N[C@H]1CSCCC(=O)N2CN3CN(C2)C(=O)CCSC[C@H](NC(=O)[C@H](CC(=O)O)NC(=O)[C@H](CCC(=O)O)NC(=O)[C@H](CC(C)C)NC(=O)[C@H](Cc2cccc4ccccc24)NC(=O)[C@H](CCC(N)=O)NC1=O)C(=O)N[C@@H](Cc1c[nH]c2ccccc12)C(=O)N[C@@H](CCCNC(=N)N(C)C)C(=O)NCC(=O)N[C@@H](Cc1ccc(F)cc1)C(=O)N[C@H](C(=O)N[C@@H](C)C(N)=O)CSCCC3=O
In vivo [2]
  MRT: 2.2 h
In vivo [3]
  bioavailability: 8.6%
In vivo [4]
  half-life: 0.117 h
In vivo [5]
  Vd: 0.23 L/kg
In vitro [6]
  remaining at 18 h: > 50%
In vivo [7]
  dose excreted: 0.3%
In vivo [8]
  clearance: 23 mL/min/kg

## CC(=O)N[C@H]1CSCCC(=O)N2CN3CN(C2)C(=O)CCSC[C@H](NC(=O)[C@H](CC(=O)O)NC(=O)[C@H](CCC(=O)O)NC(=O)[C@H](CC(C)C)NC(=O)[C@H](Cc2cccc4ccccc24)NC(=O)[C@H](CCC(N)=O)NC1=O)C(=O)N[C@@H](Cc1c[nH]c2ccccc12)C(=O)N[C@@H](CCCNC(=N)N(C)C)C(=O)NCC(=O)N[C@@H](Cc1ccc(F)cc1)C(=O)N[C@H](C(N)=O)CSCCC3=O
In vitro [1]
  half-life at 1 h, 10 µM: 1.38 h
In vitro [6]
  remaining at 18 h: > 50%

## CC(=O)N[C@H]1CSCCC(=O)N2CN3CN(C2)C(=O)CCSC[C@H](NC(=O)[C@H](CC(=O)O)NC(=O)[C@H](CCC(N)=O)NC(=O)[C@H](CC(C)(C)C)NC(=O)[C@H](Cc2cccc4ccccc24)NC(=O)[C@H](C)N(C)C1=O)C(=O)N[C@@H](Cc1cn(C)c2ccccc12)C(=O)N[C@@H](CCCNC(=N)N(C)C)C(=O)NCC(=O)N[C@@H](Cc1ccc(F)cc1)C(=O)N[C@H](C(=O)N[C@@H](C)C(N)=O)CSCCC3=O
In vivo [2]
  MRT: 2.4 h
In vivo [3]
  bioavailability: 23%
In vivo [4]
  half-life: 0.75 h
In vivo [5]
  Vd: 0.41 L/kg
In vitro [6]
  remaining at 18 h: > 50%
In vivo [7]
  dose excreted: 0.9%
In vivo [8]
  clearance: 6.4 mL/min/kg

## CC(=O)N[C@H]1CSCCC(=O)N2CN3CN(C2)C(=O)CCSC[C@@H](NC(=O)[C@H](CC(N)=O)NC(=O)[C@H](CCC(=O)O)NC(=O)[C@H](CC(C)C)NC(=O)[C@H](Cc2c[nH]c4ccccc24)NC(=O)[C@H](Cc2c[nH]cn2)NC1=O)C(=O)N[C@@H](Cc1c[nH]c2ccccc12)C(=O)N[C@@H](CCCNC(=N)N)C(=O)NCC(=O)N[C@@H](Cc1ccccc1)C(=O)N[C@H](C(N)=O)CSCCC3=O
In vitro [1]
  half-life at 1 h, 10 µM: < 0.0833 h
In vitro [9]
  remaining at 2 h: 90%
In vitro [10]
  half-life: < 5 min

## CC(=O)N[C@H]1CSCCC(=O)N2CN3CN(C2)C(=O)CCSC[C@H](NC(=O)[C@H](CC(=O)O)NC(=O)[C@H](CCC(=O)O)NC(=O)[C@H](CC(C)C)NC(=O)[C@H](Cc2c[nH]c4ccccc24)NC(=O)[C@H](CCC(N)=O)NC1=O)C(=O)N[C@@H](Cc1c[nH]c2ccccc12)C(=O)N[C@@H](CCCNC(=N)N)C(=O)NCC(=O)N[C@@H](Cc1ccc(F)cc1)C(=O)N[C@H](C(N)=O)CSCCC3=O
In vitro [1]
  half-life at 1 h, 10 µM: 0.583 h
In vitro [6]
  remaining at 18 h: > 50%

## CC(=O)N[C@H]1CSCCC(=O)N2CN3CN(C2)C(=O)CCSC[C@H](NC(=O)[C@H](CC(=O)O)NC(=O)[C@H](CCC(N)=O)NC(=O)[C@H](CC(C)(C)C)NC(=O)[C@H](Cc2cn(C)c4ccccc24)NC(=O)[C@H](C)N(C)C1=O)C(=O)N[C@@H](Cc1cn(C)c2ccccc12)C(=O)N[C@@H](CCCNC(=N)N(C)C)C(=O)NCC(=O)N[C@@H](Cc1ccc(F)cc1)C(=O)N[C@H](C(N)=O)CSCCC3=O
In vitro [1]
  half-life at 1 h, 10 µM: 2.38 h
In vitro [6]
  remaining at 18 h: > 50%

## CC(=O)N[C@H]1CSCCC(=O)N2CN3CN(C2)C(=O)CCSC[C@H](NC(=O)[C@H](CC(=O)O)NC(=O)[C@H](CCC(=O)O)NC(=O)[C@H](CC(C)(C)C)NC(=O)C(Cc2cn(C)c4ccccc24)NC(=O)[C@H](CCC(N)=O)NC1=O)C(=O)N[C@@H](Cc1cn(C)c2ccccc12)C(=O)N[C@@H](CCCNC(=N)N(C)C)C(=O)NCC(=O)N[C@@H](Cc1ccc(F)cc1)C(=O)N[C@H](C(N)=O)CSCCC3=O (some centres undefined)
In vivo [2]
  MRT: 1.3 h
In vivo [3]
  bioavailability: 24.7%
In vivo [4]
  half-life: 0.433 h
In vivo [5]
  Vd: 0.42 L/kg
In vitro [6]
  remaining at 18 h: > 50%
In vivo [7]
  dose excreted: 1%
In vivo [8]
  clearance: 12 mL/min/kg
